Measurements as given in patent US9975881B2, “Compound” (ASTRAZENECA AB, priority 2011, dated 2018).

Assay: Human hepatic intrinsic clearance (CLint) from human hepatocyte incubations
Assay type: in vitro ADME
Details: cryopreserved human hepatocytes in suspension, 1×10^6 cells/ml, 1 μM compound, no HSA, pH 7.4
From the text: Measurement of Human Hepatic Intrinsic Clearance (CLint)
For the majority of drugs, a large component of their plasma clearance is contributed by hepatic metabolism. Intrinsic clearance (CLint) is a measure of the potential of a compound to undergo metabolism and can be related to hepatic clearance in vivo from a consideration of plasma protein binding and liver blood flow. Therefore, CLint may be used as a key parameter in predicting the half-life of a compound in humans. […]
An aliquot of cell suspension (0.2 mL) was diluted with 0.2 ml protein-free suspension buffer. […] The cells were then counted (central square only) using an inverted microscope, viable cells being able to exclude the dye and non-viable cells being stained. The percentage of viable cells in the preparation was calculated thus:
The concentration of viable cells was calculated: Viable cells ml^−1=Viable cell count×10^4×3×50 […]
At appropriate time points (e.g. 5, 15, 30, 45, 60, 75, 90 and 120 min), aliquots (40 μl) were taken out of the incubation mix and added to 3 volumes of methanol to terminate the reactions and denature the hepatocytes. […] The supernatants were transferred to micro titre plates and analysed by HPLC-MSMS using the following method as a suitable starting point: […]

hepatocyte CLint at 1 μM: 2.9 µL/min/1e6 cells
Structure (SMILES): CC1CN(S(=O)(=O)Nc2cc(O[C@H](C)[C@@H](O)CO)nc(SCc3ccc(F)cc3)n2)C1 [Example 1, N-(6-((2R,3S)-3,4-Dihydroxybutan-2-yloxy)-2-(4-fluorobenzylthio)pyrimidin-4-yl)-3-methylazetidine-1-sulfonamide]
